In brackets after ≈: the same amount, converted by molar mass. Where a name gives a salt, the structure may show the parent alone.
What was measured:
[1] = solubility in water at 22° C.; assay type: physicochemical
mice = experiment: LD50 toxicity measurement on mice, i.p., eight days after a single application; assay type: in vivo; conditions: calculated by method of Litchfield
Experimental: The LD50, i.p. values (μmole/1) were determined by toxicity measurements on mice, eight days after a single application. The LD50 values were calculated by the method of J. P. Litchfield et al., J. Pharmacol. exp. Ther. 96, 99 (1949).

[2] = test system: isolated auricle of guinea pigs; experiment: measurement in the isolated auricle (functional refractory period and contraction force), modified method of Govier; conditions: Cavia porcellus, on the average; for EC (125% of initial value): read-out: FRP: concentration at which the functional refractory period is extended to 125% of the initial values; for IC25: read-out: Force: concentration at which the contraction force is reduced to 75% of the initial values
Experimental: These values were determined by measurements in the isolated auricle of guinea pigs by the method (modified) of Govier, as described by Govier in J. Pharmacol. exp.

[3] = hygroscopicity of crystalline salts; assay type: physicochemical
[4] = stability tests (storage at 55° C.; exposure to light) with thin layer chromatography; assay type: physicochemical; conditions: salts
Experimental: In stability tests, no dissociation was found in thin layer chromatographic investigations. One test included storage for one month at 55° C. and as a second test utilized exposure to light (30 hours, rapid light exposure instrument "SUNTEST," Heraeus Co.).

humans = conditions: application to humans; cited from earlier work

## CCCCCC1C2CC(CN3CCCCC23)C2CCCCN21 (single isomer, unassigned) [acidiferous 17-β-n-pentyl sparteine-L(+) tartrate]
[1]
  solubility: > 1000 mg/mL
mice
  LD50 i.p.: 262 μmole/1
[2]
  EC (125% of initial value): 9.1 µM
  IC25: 22.1 µM

## CCCCCC1C2CC(CN3CCCCC23)C2CCCCN21 (stereo not shown) [Example 11]
[3]
  hygroscopicity: very rapidly dissolved

## CCCCCC1C2CC(CN3CCCCC23)C2CCCCN21 (stereo not drawn) [Pentylsparteine diperchlorate, perchlorate of 17-β-n-pentyl sparteine]
[4]
  stability: stable salt
[1]
  solubility: 20 mg/mL (≈ 65.7 mM)
humans
  toxicity in humans: leukopenia, agranulocytosis and aplastic anemia
mice
  LD50 i.p.: 283 μmole/1
[2]
  EC (125% of initial value): 7.7 µM
  IC25: 19.2 µM

## C1CCN2C[C@@H]3C[C@@H](CN4CCCC[C@@H]34)[C@H]2C1 [Sparteine Sulfate, sparteine sulfate]
mice
  LD50 i.p.: 202 μmole/1
[2]
  EC (125% of initial value): 33.9 µM
  IC25: 959 µM

## CCCCCC1C2CC(CN3CCCCC23)C2CCCCN21 (stereo not drawn) [hydrochloride of 17-β-n-pentyl sparteine]
[3]
  hygroscopicity: extremely hydroscopic

## CCCCCC1C2CC(CN3CCCCC23)C2CCCCN21 (stereo not drawn) [sulfate of 17-β-n-pentyl sparteine]
[3]
  hygroscopicity: extremely hydroscopic

From patent US4451468A, “Acidiferous 17-normal-pentyl sparteine tartaric and fumaric acid salts pharmaceutical compositions thereof” (Kali-Chemie Pharma GmbH, priority 1979, dated 1984)
